Experimental data published in US11179348B2, “Combination comprising pterostilbene for the treatment of cancer” (FUNDACIÓN UNIVERSIDAD CATÓLICA DE VALENCIA SAN VICENTE …, priority 2015, dated 2021).

Assays:
[1] = test system: BxPC-3 pancreatic cancer cells; assay: Nrf2- and redox state-related enzyme activities and metabolites in BxPC-3 cells growing in vivo; design: species or system human; details: BxPC-3, in vivo +Pter, day 35
Method: To measure enzyme activity, isolated tumor cells were homogenized in 0.1 M phosphate buffer (pH 7.2) at 4° C. GCL and GSS activities were measured as described previously (Obrador, E. et al. Hepatology 35, 74-81 (2002)). GPX (selenium dependent) activity was measured as described by Flohé and Gunzler (Flohe, L. & Gunzler, W. A. Methods Enzymol 105, 114-121 (1984)) using H2O2 as a substrate. GSR activity was determined as described by Akerboom and Sies (Akerboom, T. P. et al, Bull Eur Physiopathol Respir 17 Suppl, 221-227 (1981)). GGT activity was measured as described previously (Obrador, E. et al. Hepatology 35, 74-81 (2002)). GST activity was measured using an assay kit from Sigma. TXNRD activity, defined by the concentration of sodium-lipoate (disulfide) reduced to dehydrolipoate (dithiol) per milligram protein, was measured as previously described (Javvadi, P. et al. Cancer Res 70, 1941-1950 (2010)). SOD activity was measured as described by Flohé and Otting (Flohe, L. & Otting, F. Methods Enzymol 105, 93-104 (1984).) using 2 mM cyanide in the assay medium to distinguish mangano-type enzyme (SOD2) from the cuprozinc type (SOD1). CAT activity was analyzed as described by Aebi (Aebi, H. Methods Enzymol 105, 121-126 (1984)). NOX activity was measured by chemiluminescence following the methodology of Wind et al. (Wind, S. et al. Comparative pharmacology of chemically distinct NADPH oxidase inhibitors. Br J Pharmacol 161, 885-898 (2010)). Protein concentration was determined with the Pierce BCA protein assay (Fisher Scientific, Waltham, Mass.). […]
Quantitative measurement of H2O2 and flow cytometry determination of O2^⋅− generation were performed as previously described (Benlloch, M. et al. J Biol Chem 281, 69-79 (2006)).
(§1) GSH, GSSG, NADP^+ and NADPH Determination.
(§2) GSH and GSSG were determined, following procedures previously described (Obrador, E. et al. PLoS One 9, e96466 (2014)), by LC/MS using the same equipment described above for pterostilbene determination. Cell processing was performed according to published methodology, where rapid N-ethylmaleimide derivatization was used to prevent GSH auto-oxidation (Asensi, M. et al. Anal Biochem 217, 323-328 (1994)). NADP^+ and NADPH were quantitated using an assay kit from Sigma (St. Louis, Mo.).

[2] = test system: SK-OV-3 cells; assay: GSH levels and glutathione- and oxidative stress-related enzyme activities in SK-OV-3 cells growing in vivo; design: species or system human; details: SK-OV-3, in vivo Pter, day 49
Method: To measure enzyme activity, isolated tumor cells were homogenized in 0.1 M phosphate buffer (pH 7.2) at 4° C. GCL and GSS activities were measured as described previously (Obrador, E. et al. Hepatology 35, 74-81 (2002)). GPX (selenium dependent) activity was measured as described by Flohé and Gunzler (Flohe, L. & Gunzler, W. A. Methods Enzymol 105, 114-121 (1984)) using H2O2 as a substrate. GSR activity was determined as described by Akerboom and Sies (Akerboom, T. P. et al, Bull Eur Physiopathol Respir 17 Suppl, 221-227 (1981)). GGT activity was measured as described previously (Obrador, E. et al. Hepatology 35, 74-81 (2002)). GST activity was measured using an assay kit from Sigma. TXNRD activity, defined by the concentration of sodium-lipoate (disulfide) reduced to dehydrolipoate (dithiol) per milligram protein, was measured as previously described (Javvadi, P. et al. Cancer Res 70, 1941-1950 (2010)). SOD activity was measured as described by Flohé and Otting (Flohe, L. & Otting, F. Methods Enzymol 105, 93-104 (1984).) using 2 mM cyanide in the assay medium to distinguish mangano-type enzyme (SOD2) from the cuprozinc type (SOD1). CAT activity was analyzed as described by Aebi (Aebi, H. Methods Enzymol 105, 121-126 (1984)). NOX activity was measured by chemiluminescence following the methodology of Wind et al. (Wind, S. et al. Comparative pharmacology of chemically distinct NADPH oxidase inhibitors. Br J Pharmacol 161, 885-898 (2010)). Protein concentration was determined with the Pierce BCA protein assay (Fisher Scientific, Waltham, Mass.).
as §1, §2
Isolation of Tumor Cells from Mouse Xenografts Using Enzymatic Digestion and a double Ficoll gradient.
To maximize the amount of isolated cells, avoiding the use of RFP-transfected cells and subsequent laser microdissection, an alternative methodology was set up. To maximize cell yield and viability the following combination of enzymes was used: collagenase III (200 U/ml; Sigma-Aldrich), DNase I (200 U/ml; Sigma-Aldrich) and trypsin (5 mg/ml; Invitrogen), and a non-enzymatic dissociation buffer (NEDB, Invitrogen). Briefly, mice were killed, and tumors were removed (avoiding skin, muscle and fat) into cold culture media and processed immediately. The tumors were minced into 1-3 mm fragments, which were then incubated with the dissociation solution (see above) for 30 min at 37° C. The tumor fragments were mixed up and down every 10 min using a […] micropipette with a tip cut to a diameter adapted to tissue fragment size. After each incubation period, the fragments were filtered through a […] nylon mesh cell strainer (BD Biosciences, San Diego, Calif., USA). The released cells were centrifuged at 1200 r.p.m. for 2 min and stored in cold CO2-independent medium with 30% FCS at […]. Fresh dissociation solution was added to the remaining tissue fragments for 30 min. Dissociation was stopped when no additional cells were released. The fragments were pushed through a sieve and all cells from all incubation periods were pooled and counted.
The dissociated cells were layered onto a double Ficoll gradient (Histopaque; Sigma-Aldrich; densities 1.077 and 1.119) and spun at 700 g for 30 min at room temperature. Cells removed from both interfaces were pooled and washed two times in CO2-independent medium and stored at 4° C. Debris and red blood cell elimination was improved with the dual-density gradient. […]

Work on `COc1cc(/C=C/c2ccc(O)cc2)cc(OC)c1` [Pter, trans-3,5-dimethoxy-4′-hydroxystilbene] yielded a CAT [1] of 1.0 ± 0.2 mU/10^6 cells, a G6PDH [1] of 264 ± 56 mU/10^6 cells and a GCL [1] of 36 ± 15 mU/10^6 cells. The GGT [1] was 19.7 ± 3.7 mU/10^6 cells, the GPX [1] was 9.2 ± 2.0 mU/10^6 cells and the GSH [1] was 3.7 ± 1.1 nmol/10^6 cells. For the same compound, the GSH/GSSG [1] was 12 ± 4, the GSR [1] was 2.3 ± 0.7 mU/10^6 cells and the GSS [1] was 4.0 ± 1.3 mU/10^6 cells. It also gave a GSSG [1] of 0.3 ± 0.1 nmol/10^6 cells, a GST [1] of 3.2 ± 1.0 mU/10^6 cells and an H2O2 [1] of 1.3 ± 0.2 nmol/10^6 cells × min. For the same compound, the IDH [1] was 1.7 ± 0.5 U/10^6 cells, the ME [1] was 40 ± 7 mU/10^6 cells and the NADPH [1] was 0.03 ± 0.01 nmol/mg prot. The “NADPH/NADP^+” value [1] was 0.6 ± 0.2, the “NADP^+” value [1] was 0.05 ± 0.005 nmol/mg prot and the NOX [1] was 89 ± 25 R.L.U./10^6 cells. For the same compound, the “O2′−” value [1] was 5.9 ± 1.7 ΔFL1, a.u, the SOD1 [1] was 0.1 ± 0.05 U/10^6 cells and the SOD2 [1] was 0.05 ± 0.02 U/10^6 cells. The TXN [1] was 0.2 ± 0.1 μg/10^6 cells, the TXNRD [1] was 0.8 ± 0.2 U/10^6 cells and the CAT [2] was 1.8 ± 0.4 mU/10^6 cells. It also gave a GCL [2] of 18 ± 6 mU/10^6 cells, a GSH [2] of 1.5 ± 0.7 nmol/10^6 cells and a GSS [2] of 1.6 ± 0.4 mU/10^6 cells. It also gave a GSSG [2] of 0.2 ± 0.05 nmol/10^6 cells, an SOD1 [2] of 0.1 ± 0.03 U/10^6 cells and an SOD2 [2] of 0.01 ± 0.005 U/10^6 cells.
